Holding throughout (format): cell-based
Assay [1] has as its system Glomerella lagenarium (syn. Colletotrichum lagenarium). In words: Glomerella lagenarium (Anthracnose of Cucurbits) growth inhibition, microtiter plate, photometric. To be noted: alone. As for the experimental part: Glomerella lagenarium (syn. Colletotrichum lagenarium), Anthracnose of Cucurbits:
(§1) Conidia of the fungus from cryogenic storage were directly mixed into nutrient broth (potato dextrose broth). After placing a (DMSO) solution of the test compounds into a microtiter plate (96-well format) the nutrient broth containing the fungal spores was added.

In a further assay the test system is Rhizoctonia solani. Briefly: Rhizoctonia solani (Foot Rot, Damping-Off) growth inhibition, microtiter plate, photometric. As for the experimental part: Rhizoctonia solani (Foot Rot, Damping-Off):
Mycelial fragments of the fungus from cryogenic storage were directly mixed into nutrient broth (potato dextrose broth). After placing a (DMSO) solution of the test compounds into a microtiter plate (96-well format) the nutrient broth containing the fungal spores was added.

Another assay relates to Gaeumannomyces graminis. Briefly: Gaeumannomyces graminis growth inhibition, microtiter plate, photometric. The procedure: Mycelial fragments of the fungus from cryogenic storage were directly mixed into nutrient broth (potato dextrose broth). After placing a (DMSO) solution of the test compounds into a microliter plate (96-well format) the nutrient broth containing the fungal spores was added.

In another assay the test system is Septoria tritici. Briefly: Septoria tritici (Leaf Blotch) growth inhibition, microtiter plate, photometric. The procedure: Septoria tritici (Leaf Blotch):
as §1

The subject of assay [2] is Mycosphaerella arachidis (syn. Cercospora arachidicola). Briefly: Mycosphaerella arachidis (Brown Leaf Spot of Groundnut) growth inhibition, microtiter plate, photometric. To be noted: alone. As for the experimental part: Mycosphaerella arachidis (syn. Cercospora arachidicola), Brown Leaf Spot of Groundnut (Peanut):
as §1

The subject of the next assay is Fusarium culmorum. In words: Fusarium culmorum (Root Rot) growth inhibition, microtiter plate, photometric. The procedure:
Fusarium culmorum (Root Rot):
as §1

The next assay deals with Pythium ultimum. In words: Pythium ultimum (Damping Off) growth inhibition, microtiter plate, photometric. As for the experimental part:
Pythium ultimum (Damping Off):
Mycelial fragments of the fungus, prepared from a fresh liquid culture, were directly mixed into nutrient broth (potato dextrose broth). After placing a (DMSO) solution of the test compounds into a microtiter plate (96-well format) the nutrient broth containing the fungal spores was added.

Where [3] appears, read: single compound at 0.0078125 ppm AI.
[4] abbreviates: single compound at 0.0625 ppm AI.
Setting [5] is: single compound at 0.125 ppm AI.

Values joined by “and” are separate entries in the source; they are usually repeats but may differ in a detail not shown here. Equal entries are not always repeated.

As to `CO/C=C(\C(=O)OC)c1ccccc1Oc1cc(Oc2ccccc2C#N)ncn1` [Azoystrobin], the “AVERAGE DEAD IN %” value in assay [1] (0.0078125 ppm AI) was 0%; in assay [1] (0.015625 ppm AI), 50%; in assay [1] (0.03125 ppm AI), 50%; in assay [1] (0.0625 ppm AI), 70%.

On to `Cn1cc(C(=O)Nc2cccc3c2C2CCC3C2=C(Cl)Cl)c(C(F)F)n1` (stereo not drawn) [COMPOUND III], for which the “AVERAGE DEAD IN %” value in the assay with Rhizoctonia solani (applied alone, 0.03125 ppm AI) was 90%; in the assay on Gaeumannomyces graminis (single compound at 0.00390625 ppm AI), 0%; with Gaeumannomyces graminis (setting [3]), 0%; with Gaeumannomyces graminis (setting [4]), 70% and 90%; with Gaeumannomyces graminis (setting [5]) it was 90%; in the assay on Gaeumannomyces graminis (single compound at 0.25 ppm AI) it was 100%. Also, the “AVERAGE DEAD IN %” value in the assay with Gaeumannomyces graminis (single compound at 0.5 ppm AI) came to 100%; in the assay on Gaeumannomyces graminis (single compound at 1 ppm AI) it was 100%; with Gaeumannomyces graminis (single compound at 2 ppm AI), 100%; in assay [1] (0.0078125 ppm AI) it was 0%; in assay [1] (0.015625 ppm AI), 0%; in assay [1] (0.125 ppm AI) it was 50%. Also, the “AVERAGE DEAD IN %” value in the assay with Septoria tritici (0.125 ppm AI, alone) was 20%; in the assay on Septoria tritici (0.25 ppm AI, alone), 70% and 50%; in the assay on Septoria tritici (0.5 ppm AI, alone), 90%; in assay [2] (0.0078125 ppm AI), 0%; in assay [2] (0.015625 ppm AI), 0%; in assay [2] (0.03125 ppm AI), 20%. The “AVERAGE DEAD IN %” value is 90% in assay [2] (0.0625 ppm AI); 70% and 50% in assay [2] (0.03125 PPM AI); 100% and 70% and 90% in assay [2] (0.0625 PPM AI); 90% in assay [2] (0.125 PPM AI). Further, the “AVERAGE DEAD IN % COMPOUND III” value in the assay with Septoria tritici (COMPOUND III alone, 0.0078125 ppm AI) was 0%; in the assay with Septoria tritici (COMPOUND III alone, 0.015625 ppm AI), 0%; in the assay on Septoria tritici (COMPOUND III alone, 0.03125 ppm AI), 0%; in the assay on Septoria tritici (COMPOUND III alone, 0.0625 ppm AI), 0%; in the assay with Septoria tritici (COMPOUND III alone, 0.125 ppm AI), 20%; with Septoria tritici (COMPOUND III alone, 0.25 ppm AI), 50% and 70%. In addition, the “AVERAGE DEAD IN % COMPOUND III” value in the assay on Septoria tritici (COMPOUND III alone, 0.5 ppm AI) is 70%; in the assay with Septoria tritici (COMPOUND III alone, 1 ppm AI), 90%.

`CC(C1CC1)C(O)(Cn1cncn1)c1ccc(Cl)cc1` (stereo not drawn) [Cyproconazole]: the “AVERAGE DEAD IN %” value is 20% in the assay on Rhizoctonia solani (applied alone, 0.25 ppm AI); 70% and 100% in the assay with Rhizoctonia solani (applied alone, 2 ppm AI); 20% in the assay on Gaeumannomyces graminis (single compound at 0.25 ppm AI); 50% and 90% in the assay with Gaeumannomyces graminis (single compound at 0.5 ppm AI); 70% in the assay on Gaeumannomyces graminis (single compound at 1 ppm AI); 90% in the assay on Gaeumannomyces graminis (single compound at 2 ppm AI). Besides, the “AVERAGE DEAD IN %” value with Septoria tritici (0.25 ppm AI, alone) is 20%; in the assay on Septoria tritici (0.5 ppm AI, alone), 50%; with Septoria tritici (1 ppm AI, alone), 70%; with Septoria tritici (2 ppm AI, alone), 90%; with Septoria tritici (alone, 0.25 ppm AI), 0%; in the assay with Septoria tritici (alone, 0.5 ppm AI) it was 50%. The “AVERAGE DEAD IN %” value is 70% in the assay with Septoria tritici (alone, 1 ppm AI); 70% in the assay with Septoria tritici (alone, 2 ppm AI); 70% in assay [2] (0.125 ppm AI); 0% in assay [2] (0.0625 PPM AI); 20% in assay [2] (0.125 PPM AI); 70% and 100% in assay [2] (0.25 PPM AI). Moreover, the “AVERAGE DEAD IN %” value in assay [2] (0.5 PPM AI) is 100%; in the assay with Fusarium culmorum (alone, 2 PPM AI), 20%. Besides, the “AVERAGE DEAD IN % Cyproconazole” value in the assay on Septoria tritici (Cyproconazole alone, 0.5 ppm AI) is 50%; in the assay on Septoria tritici (Cyproconazole alone, 1 ppm AI) it was 70%; in the assay with Septoria tritici (Cyproconazole alone, 2 ppm AI), 90%.

For `CC1COC(Cn2cncn2)(c2ccc(Oc3ccc(Cl)cc3)cc2Cl)O1` (stereo not drawn) [Difenoconazole], the “AVERAGE DEAD IN %” value in the assay on Rhizoctonia solani (applied alone, 0.25 ppm AI) is 20%; in the assay on Rhizoctonia solani (applied alone, 0.5 ppm AI), 50% and 70%; with Rhizoctonia solani (applied alone, 1 ppm AI), 50% and 100%; with Rhizoctonia solani (applied alone, 2 ppm AI), 100%; in the assay on Gaeumannomyces graminis (single compound at 0.25 ppm AI) it was 0%; in the assay with Gaeumannomyces graminis (single compound at 0.5 ppm AI), 0%. Also, the “AVERAGE DEAD IN %” value is on record as 20% in the assay on Gaeumannomyces graminis (single compound at 1 ppm AI); 90% with Gaeumannomyces graminis (single compound at 2 ppm AI); 20% in assay [1] (0.5 ppm AI); 20% in assay [1] (1 ppm AI); 50% with Septoria tritici (0.03125 ppm AI, alone); 70% in the assay with Septoria tritici (0.0625 ppm AI, alone). Also, the “AVERAGE DEAD IN %” value in the assay on Septoria tritici (0.125 ppm AI, alone) is recorded as 90%; in the assay with Septoria tritici (0.25 ppm AI, alone) it was 90%; with Septoria tritici (0.5 ppm AI, alone), 90%; with Septoria tritici (1 ppm AI, alone), 90%; with Septoria tritici (2 ppm AI, alone), 90%; in assay [2] (0.00390625 ppm AI), 0%. The “AVERAGE DEAD IN %” value in assay [2] (0.0078125 ppm AI) is 50%; in assay [2] (0.00390625 PPM AI), 0%; in assay [2] (0.015625 PPM AI), 50% and 90%; in the assay on Fusarium culmorum (alone, 0.25 PPM AI) it was 20%; in the assay on Fusarium culmorum (alone, 0.5 PPM AI), 20%; with Fusarium culmorum (alone, 1 PPM AI), 20%. The “AVERAGE DEAD IN %” value in the assay with Fusarium culmorum (alone, 2 PPM AI) turned out to be 90%; with Fusarium culmorum (single compound, 0.25 PPM AI, 48 hrs, 24° C.), 20%; in the assay on Fusarium culmorum (single compound, 0.5 PPM AI, 48 hrs, 24° C.) it was 20%; in the assay on Fusarium culmorum (single compound, 1 PPM AI, 48 hrs, 24° C.), 70%. The “AVERAGE DEAD IN % Difenoconazole” value is 0% with Septoria tritici (Difenoconazole alone, 0.0078125 ppm AI); 0% with Septoria tritici (Difenoconazole alone, 0.015625 ppm AI); 50% and 70% in the assay on Septoria tritici (Difenoconazole alone, 0.0625 ppm AI); 70% and 90% in the assay with Septoria tritici (Difenoconazole alone, 0.125 ppm AI); 70% and 90% in the assay with Septoria tritici (Difenoconazole alone, 0.25 ppm AI); 90% in the assay on Septoria tritici (Difenoconazole alone, 0.5 ppm AI). Besides, the “AVERAGE DEAD IN % Difenoconazole” value with Septoria tritici (Difenoconazole alone, 1 ppm AI) is 90%; with Septoria tritici (Difenoconazole alone, 2 ppm AI) it was 90%.

On to `CC(C)C1C2CCC1c1c(NC(=O)c3cn(C)nc3C(F)F)cccc12` (stereo not drawn) [Isopyrazam, reference compound], for which the “AVERAGE DEAD IN %” value in the assay with Rhizoctonia solani (applied alone, 0.015625 ppm AI) was 0%; in the assay on Rhizoctonia solani (applied alone, 0.125 ppm AI), 70% and 90% and 100%; in the assay on Rhizoctonia solani (applied alone, 0.25 ppm AI) it was 90%; in the assay with Rhizoctonia solani (setting [3]), 0%; with Rhizoctonia solani (single compound at 0.015625 ppm AI), 0%; in the assay on Rhizoctonia solani (single compound at 0.03125 ppm AI), 0%. Besides, the “AVERAGE DEAD IN %” value with Rhizoctonia solani (setting [4]) stood at 50%; in the assay on Rhizoctonia solani (setting [5]) it was 70%; in the assay with Rhizoctonia solani (single compound at 0.25 ppm AI), 90%; in the assay on Gaeumannomyces graminis (applied alone, 0.25 ppm AI) it was 0%; in the assay with Gaeumannomyces graminis (applied alone, 0.5 ppm AI) it was 0%; in the assay on Gaeumannomyces graminis (single compound at 0.5 ppm AI), 0%. In addition, the “AVERAGE DEAD IN %” value with Gaeumannomyces graminis (single compound at 2 ppm AI) was found to be 50%; with Septoria tritici (0.0625 ppm AI, alone), 20%; in the assay on Septoria tritici (0.125 ppm AI, alone), 50%; in the assay on Septoria tritici (0.25 ppm AI, alone), 70%; with Septoria tritici (0.5 ppm AI, alone) it was 90%; in the assay with Septoria tritici (alone, 0.0078125 ppm AI), 0%. The “AVERAGE DEAD IN %” value with Septoria tritici (alone, 0.015625 ppm AI) is 0%; with Septoria tritici (alone, 0.03125 ppm AI), 0%; in the assay with Septoria tritici (alone, 0.0625 ppm AI), 20%; in the assay with Septoria tritici (alone, 0.125 ppm AI) it was 50%; in the assay with Septoria tritici (alone, 0.25 ppm AI) it was 70%; in the assay on Septoria tritici (alone, 0.5 ppm AI) it was 90%. The “AVERAGE DEAD IN %” value in assay [2] (0.0078125 ppm AI) is 0%; in assay [2] (0.015625 ppm AI) it was 0%; in assay [2] (0.03125 ppm AI) it was 20%; in assay [2] (0.0625 ppm AI), 70% and 90%; in assay [2] (0.015625 PPM AI) it was 0%; in assay [2] (0.03125 PPM AI), 20%. In assay [2] (0.0625 PPM AI), the “AVERAGE DEAD IN %” value is 50% and 70%. Further, the “AVERAGE DEAD IN % Isopyrazam” value in the assay on Septoria tritici (Isopyrazam alone, 0.0625 ppm AI) was 20%; with Septoria tritici (Isopyrazam alone, 0.25 ppm AI), 90% and 70%; with Septoria tritici (Isopyrazam alone, 0.5 ppm AI) it was 90%.

Turning to `C#CCOc1ccc(CCNC(=O)C(OCC#C)c2ccc(Cl)cc2)cc1OC` (stereo not drawn) [Mandipropamid, reference compound], the “AVERAGE DEAD IN %” value in the assay with Gaeumannomyces graminis (single compound at 0.25 ppm AI), in the assay with Gaeumannomyces graminis (single compound at 0.5 ppm AI) and in the assay on Gaeumannomyces graminis (single compound at 1 ppm AI) was 0% throughout.

For `COCC(=O)N(c1c(C)cccc1C)[C@H](C)C(=O)OC` [Mefenoxam, reference compound], the “AVERAGE DEAD IN %” value is 50% and 70% with Pythium ultimum (setting [5]); 70% and 90% with Pythium ultimum (single compound at 0.25 ppm AI); 90% and 100% in the assay with Pythium ultimum (single compound at 0.5 ppm AI); 100% with Pythium ultimum (single compound at 1 ppm AI); 100% in the assay with Pythium ultimum (single compound at 2 ppm AI); 0% in the assay with Gaeumannomyces graminis (single compound at 0.25 ppm AI). The “AVERAGE DEAD IN %” value in the assay on Gaeumannomyces graminis (single compound at 0.5 ppm AI) and in the assay on Gaeumannomyces graminis (single compound at 1 ppm AI) was 0% in each case.

The values are drawn from US20120324604A1, “PESTICIDAL MIXTURES CONTAINING ISOXAZOLINE DERIVATIVES AND A FUNGICIDE” (priority 2010, published 2012).
